Measurements reported in PMC4193996 (Journal of Experimental & Clinical Cancer Research : CR, 2014).

What was measured:
[1] = molecular target: T1, human recombinant M2 muscarinic receptor (Homo sapiens, UniProt P08172); assay: M2 muscarinic receptor inhibition assay; type: binding; conditions: read-out: Muscarinic (M2) % inh @1 μM
T1 sequence (P08172 1-466): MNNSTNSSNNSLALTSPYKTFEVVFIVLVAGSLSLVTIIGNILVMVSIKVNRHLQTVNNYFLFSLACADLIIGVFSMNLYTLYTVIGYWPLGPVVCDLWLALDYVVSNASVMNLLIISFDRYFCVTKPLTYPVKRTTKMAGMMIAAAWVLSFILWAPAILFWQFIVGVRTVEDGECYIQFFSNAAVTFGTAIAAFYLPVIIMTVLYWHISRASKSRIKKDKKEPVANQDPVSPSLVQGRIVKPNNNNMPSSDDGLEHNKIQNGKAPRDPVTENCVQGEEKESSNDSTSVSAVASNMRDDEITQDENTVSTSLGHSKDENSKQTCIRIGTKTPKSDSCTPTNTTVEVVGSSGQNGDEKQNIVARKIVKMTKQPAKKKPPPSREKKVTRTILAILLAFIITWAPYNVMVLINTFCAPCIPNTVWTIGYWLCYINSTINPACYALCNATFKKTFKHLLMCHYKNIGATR
Description: hEGR study and the M2 and the β2 receptor inhibition assay were performed as previously reported.
The new G-quadruplex ligands were designed in an attempt to obtain molecules with improved toxicological and on-target profiles, but maintaining the same favorable chemical and pharmacological features of the lead compound 1. With the aim of selecting the best variants, a step by step comparative analysis of their off- and on-target properties was performed. Initially the new molecules were tested for their ability to interact with and inhibit the human recombinant β2 adrenergic and M2 muscarinic receptors, and to reduce the hERG tail current in a patch clamp assay. […] Therefore, we might expect that the new ligands would impair cardiac functionality to a lesser extent than the lead molecule does.

[2] = system: h-Tel quadruplex DNA sequence 5'-d[AGGG(TTAGGG)3]-3'; assay: SPR binding to quadruplex DNA; set-up: species or system human
Description: Oligonucleotides 5’-biotin-d [AG3 (T2AG3)3] quadruplex and 5’-biotin-CGA3T3C(CT)2GA3T3CG were purchased from Midland Certified Reagent Company (Midland, TX). Purification of DNA, preparation of solutions, collection of data, and analysis of results were conducted according to methods adopted in an earlier study.
This technique takes advantage of the refractive index change elicits by the binding of the drug with the h-Tel quadruplex DNA sequence 5’-d[AGGG(TTAGGG)3]-3’ or an alternating hairpin duplex sequence immobilized on a sensor chip surface.

[3] = system: human colon cancer cell line HT-29; assay: MTT proliferation assay, HT-29; type: cell-based; conditions: 96 hours
Description: Normal WI-38 diploid human lung fibroblasts and the human colorectal adenocarcinoma HT29 cells were obtained from American Type Culture Collection (Manassas, VA, USA). BJ fibroblasts expressing hTERT and SV40 early region (BJ-EHLT) were obtained as previously reported. Cells were grown in Dulbecco Modified Eagle Medium (D-MEM, Invitrogen Carlsbad, CA, USA) supplemented with 10% fetal calf serum, 2 mM L-glutamin and antibiotics.
MTT (3-(4,5-Dimethylthiazol-2-yl)-2,5-diphenyltetrazolium Bromide) assay was performed in treated and untreated cells for 96 hours. Cells were incubated with MTT solution (Sigma-Aldrich), and the purple formazan crystals were dissolved in isopropanol. Optical densities (OD) at 540 nm was determined on microplate reader.
Firstly, we investigated if they were able to efficiently promote growth inhibition of tumor cells without affecting the survival of normal cells in vitro. In Table 1 we report for each compound the concentration causing 50% of growth inhibition (GI50) calculated by performing a proliferation assay in the human colon cancer cell line HT-29 or in the human ‘normal’ lung WI-38 cells. […] On the basis of results described so far, we decided to exclude from the further analysis ligand 10 for its high value of hERG inhibition (95%) (Table 1).

[4] = system: HT29 cells; assay: Colony forming ability, single agent or combined with SN-38; type: cell-based, human
Description: The HT29 cells were seeded in 60 mm- Petri dishes at a density of 5x10^4 cells/ plate in DMEM medium plus 10% serum FCS. After 24 hours cells were exposed to the following drugs: Ethyl-10-hydroxy-camptothecin (SN-38; 0.2, 0.4, 0.8 μM for 2 hrs), compound 8 (at 0.1, 0.2 and 0.4 μM for 96 hours) and compound 1 (0.5 and 1 μM for 96 hours). In the combination experiments the two different sequence of drug administration were evaluated: campthotecin followed by G-quadruplex ligands and the inverse sequence at fixed equipotent ratios. The medium containing the first drug was removed and replaced with fresh medium containing the second drug. Colony forming ability was evaluated as previously reported.
Synergism, additivity, and antagonism were assessed by isobologram analysis as reported previously. Combination index (CI) values <0.9, > 0.9 < 1.2, and >1.2 indicate synergism, additivity, and antagonism, respectively. The Student’s t-test (unpaired, two-tailed) was used for comparing statistical differences. Differences were considered statistically significant when P < 0.05.
We have previously reported that compound 1 in combination therapy with topoisomerase (TOPO) I inhibitors (Camptothecins) produced a synergistic antitumoral activitiy in in vitro and in vivo models. […] The study of in vitro interaction between agent 8 and ethyl-10-hydroxy-camptothecin (SN-38), the active metabolite of camptothecin Irinotecan, was preceded by experiments in which the cell colony-forming ability of the human colorectal adenocarcinoma HT29 cells was evaluated at different doses of compound 1 or 8. […]
Figure 3 Anti-tumor efficacy of compound 8 in single or combined administration with the topoisomerase I inhibitor SN-38. […] Surviving fractions were calculated as the ratio of absolute survival of the treated sample/absolute survival of the untreated sample. […] In the histograms the surviving fractions calculated as in (A) are reported. […] (C) Combination Index for SN-38 and 8 was calculated by the Chou–Talalay method. […]

- inhibition at 1 µM [1]: 99%
- Quadruplex DNA affinity K [2]: 14,2 x10^6 M^−1
- Quadruplex/duplex ratio ([2]; quadruplex vs duplex affinity): 15,8
- GI50 [3]: 750 nM
Compound: CC(=O)NCC#Cc1ccc2c3cccc4c3c([n+](C)c2c1)-c1ccccc1N4C [Compound 8]
- cell survival (colony-forming ability), single agent ([4]; HT29, 96 hours, 0.1 to 0.8 μM): inhibited cell survival in a dose-dependent manner like compound 1 but more efficiently so
- Interaction with SN-38, inverse sequence ([4]; HT29, G4-ligand followed by SN-38): additive or slight synergistic interaction
- Combination Index (CI) with SN-38 ([4]; HT29, SN-38 (2 hrs) followed by the G4-ligand (96 hours)): < 0.5
